ChEMBL document CHEMBL3734674, “Design, Synthesis, and Evaluation of Orally Available Clioquinol-Moracin M Hybrids as Multitarget-Directed Ligands for Cognitive Improvement in a Rat Model of Neurodegeneration in Alzheimer's Disease” (J Med Chem, 2015)

Legend:
[1] = Metabolic stability in rat liver microsomes after 5 to 180 mins by HPLC-UV analysis; type: ADME
[2] = Half life in rat liver microsomes at 100 uM after 5 to 180 mins by HPLC-UV analysis; type: ADME

Compound	k el [1]	half-life at 100 µM [2]
Oc1c(I)cc(Cl)c2cccnc12 [CLIOQUINOL]	0.000331 s⁻¹	34.8 min
COc1cc2c(cc1OC)C(=O)C(CC1CCN(Cc3ccccc3)CC1)C2 (stereo unspecified) [DONEPEZIL]	0.000149 s⁻¹	73.3 min
C[C@]12CC[C@H]3[C@@H](CCC4=CC(=O)CC[C@@]43C)[C@@H]1CC[C@@H]2O [TESTOSTERONE]	0.00525 s⁻¹	2.1 min
